According to PubChem BioAssay AID330 (DTP/NCI, 2004):
Several values for one entry are separate records, joined by “and”; a condition that tells them apart may be missing. Identical values can stand only once. Toxic doses and inconclusive results are not listed. How the source made its calls: active means survival T/C of 150% or more; inactive means T/C below 125% in these data.

System: P388 leukemia ip, CD2F1 mice, survival T/C
Assay: NCI In Vivo Anticancer Drug Screen. Data for tumor model P388 Leukemia (intraperitoneal) in CD2F1 (CDF1) mice
Details: endpoint: median survival time, higher = longer survival
Summary of the method: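 Mice carrying the transplanted tumor received test compound or vehicle. Survival was recorded in each group, and the value is the treated-group measurement divided by that of the vehicle-treated control group.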

[1] = dose: 50.0 mg/kg/injection, schedule: Q01DX005 (ip), vehicle: saline with Tween-80
[2] = dose: 100.0 mg/kg/injection, schedule: Q01DX005 (ip), vehicle: saline with Tween-80
[3] = dose: 200.0 mg/kg/injection, schedule: Q01DX005 (ip), vehicle: saline with Tween-80
[4] = dose: 12.5 mg/kg/injection, schedule: Q01DX009 (ip), vehicle: other
[5] = dose: 25.0 mg/kg/injection, schedule: Q01DX009 (ip), vehicle: other
[6] = dose: 50.0 mg/kg/injection, schedule: Q01DX009 (ip), vehicle: other
[7] = dose: 25.0 mg/kg/injection, schedule: Q01DX009 (ip), vehicle: saline with Tween-80
[8] = dose: 50.0 mg/kg/injection, schedule: Q01DX009 (ip), vehicle: Klucel (hydroxypropylcellulose) (HPC)
[9] = dose: 100.0 mg/kg/injection, schedule: Q01DX009 (ip), vehicle: Klucel (hydroxypropylcellulose) (HPC)
[10] = dose: 60.0 mg/kg/injection, schedule: Q01DX005 (ip), vehicle: saline with Tween-80
[11] = dose: 120.0 mg/kg/injection, schedule: Q01DX005 (ip), vehicle: saline with Tween-80
[12] = dose: 50.0 mg/kg/injection, schedule: Q01DX009 (ip), vehicle: saline with Tween-80
[13] = dose: 100.0 mg/kg/injection, schedule: Q01DX009 (ip), vehicle: saline with Tween-80
[14] = dose: 60.0 mg/kg/injection, schedule: Q01DX005 (ip), vehicle: Klucel (hydroxypropylcellulose) (HPC)
[15] = dose: 120.0 mg/kg/injection, schedule: Q01DX005 (ip), vehicle: Klucel (hydroxypropylcellulose) (HPC)
[16] = dose: 200.0 mg/kg/injection, schedule: Q01DX009 (ip), vehicle: saline with Tween-80

Measured: T/C

CCCCC[C@@H]1CCCC2C1CCC(CCCCCO)N2C(=O)OCC(Cl)(Cl)Cl (stereo partly drawn)
inactive: [1] 100 % of control | [2] 106 % of control | [3] 100 % of control

O=C(NC(CCS(=O)(=O)NO)C(=O)OCc1ccccc1)OCc1ccccc1 (stereo not drawn)
inactive: [4] 100 % of control | [5] 95 % of control | [6] 109 % of control | dose: 100.0 mg/kg/injection, schedule: Q01DX009 (ip), vehicle: other 95 % of control | dose: 200.0 mg/kg/injection, schedule: Q01DX009 (ip), vehicle: other 92 % of control

CCO/C(C)=N\c1nc(C)[nH]c1C(N)=O
inactive: dose: 6.25 mg/kg/injection, schedule: Q01DX009 (ip), vehicle: saline with Tween-80 120 % of control | dose: 12.5 mg/kg/injection, schedule: Q01DX009 (ip), vehicle: saline with Tween-80 106 % of control | [7] 87 % of control | dose: 200.0 mg/kg/injection, schedule: Q01DX009 (ip), vehicle: saline 86 % of control

CC1=C(C)C(=O)OC(C(C)(O)C2(O)CCC3(O)C4CC(O)C56OC5C=CC(=O)C6(C)C4CCC32C)C1 (stereo not drawn)
inactive: dose: 0.75 mg/kg/injection, schedule: Q01DX005 (ip), vehicle: Klucel (hydroxypropylcellulose) (HPC) 100 % of control | dose: 1.5 mg/kg/injection, schedule: Q01DX005 (ip), vehicle: Klucel (hydroxypropylcellulose) (HPC) 102 % of control | dose: 3.0 mg/kg/injection, schedule: Q01DX005 (ip), vehicle: Klucel (hydroxypropylcellulose) (HPC) 108 % of control | dose: 6.0 mg/kg/injection, schedule: Q01DX005 (ip), vehicle: Klucel (hydroxypropylcellulose) (HPC) 111 % of control

CCCNC(C)(C)C(SS)c1ccc(C(F)(F)F)cc1 (stereo not drawn)
inactive: [4] 100 % of control | [5] 100 % of control | [6] 109 % of control

CCOc1ccc(/C=C2\CCc3ccccc3C2=O)cc1
inactive: [8] 98 % of control | [9] 102 % of control | dose: 200.0 mg/kg/injection, schedule: Q01DX009 (ip), vehicle: Klucel (hydroxypropylcellulose) (HPC) 99 % of control

CSC(/C=C1\C=Cc2ccccc2N1C)=NC#N
inactive: dose: 25.0 mg/kg/injection, schedule: Q04DX002 (ip), vehicle: saline with Tween-80 100 % of control | dose: 50.0 mg/kg/injection, schedule: Q04DX002 (ip), vehicle: saline with Tween-80 106 % of control | dose: 100.0 mg/kg/injection, schedule: Q04DX002 (ip), vehicle: saline with Tween-80 97 % of control

Nc1nnc(-c2ccccc2)s1
inactive: dose: 12.5 mg/kg/injection, schedule: Q01DX009 (ip), vehicle: Klucel (hydroxypropylcellulose) (HPC) 114 % of control | dose: 25.0 mg/kg/injection, schedule: Q01DX009 (ip), vehicle: Klucel (hydroxypropylcellulose) (HPC) 107 % of control | dose: 50.0 mg/kg/injection, schedule: Q01DX008 (ip), vehicle: Klucel (hydroxypropylcellulose) (HPC) 109 % of control | [8] 114 % of control | dose: 100.0 mg/kg/injection, schedule: Q01DX008 (ip), vehicle: Klucel (hydroxypropylcellulose) (HPC) 109 % of control | dose: 200.0 mg/kg/injection, schedule: Q01DX008 (ip), vehicle: Klucel (hydroxypropylcellulose) (HPC) 114 % of control

CCN(CC)CCn1ncc(Sc2cc([N+](=O)[O-])ccc2N)c(Cl)c1=O
inactive: [10] 100 % of control | [11] 89 % of control

O=C(Cl)CC1CC(=O)OC1=O (stereo not drawn)
inactive: [12] 100 % of control | [13] 95 % of control

CC1=CC(C)=NC2NNC(=O)C12 (stereo not drawn)
inactive: [10] 110 % of control | [11] 109 % of control | dose: 240.0 mg/kg/injection, schedule: Q01DX005 (ip), vehicle: saline with Tween-80 105 % of control

CCCCN1CCN(c2ccc([N+](=O)[O-])c3no[n+]([O-])c23)CC1
inactive: dose: 8.0 mg/kg/injection, schedule: Q04DX003 (ip), vehicle: suspension in saline 102 % of control | dose: 16.0 mg/kg/injection, schedule: Q04DX003 (ip), vehicle: suspension in saline 99 % of control | dose: 32.0 mg/kg/injection, schedule: Q04DX003 (ip), vehicle: suspension in saline 108 % of control

Cc1ccc(F)cc1NC(=S)NN
inactive: dose: 7.5 mg/kg/injection, schedule: Q01DX005 (ip), vehicle: Klucel (hydroxypropylcellulose) (HPC) 100 % of control | dose: 15.0 mg/kg/injection, schedule: Q01DX005 (ip), vehicle: Klucel (hydroxypropylcellulose) (HPC) 99 % of control | dose: 30.0 mg/kg/injection, schedule: Q01DX005 (ip), vehicle: Klucel (hydroxypropylcellulose) (HPC) 91 % of control

c1ccc(N=C2N=c3ccccc3=C2c2c(Nc3ccccc3)[nH]c3ccccc23)cc1
inactive: [1] 89 % of control | [2] 90 % of control | [3] 92 % of control

Cc1cc(C)c(SSc2nnnn2C)c(C)c1
inactive: [8] 100 % of control | [9] 90 % of control

CC(=O)C(=C/C=C/c1ccccc1)C(C)=O
inactive: [1] 90 % of control | [2] 98 % of control | [3] 100 % of control

Cc1c(NC(=S)Nc2ccccc2)c(=O)n(-c2ccccc2)n1C
inactive: [1] 93 % of control | [2] 93 % of control | [3] 89 % of control

CS(=O)(=O)/N=C/N(CCc1ccccc1)c1ccccc1
inactive: [14] 101 % of control | [15] 99 % of control | dose: 240.0 mg/kg/injection, schedule: Q01DX005 (ip), vehicle: Klucel (hydroxypropylcellulose) (HPC) 99 % of control

Nc1nc(N)c2ncn(-c3ccc(Br)cc3)c2n1
inactive: [1] 95 % of control | [2] 92 % of control | [3] 91 % of control

NC(CCC(=O)NC(CSC(c1ccccc1)(c1ccccc1)c1ccccc1)C(=O)NCC(=O)O)C(=O)O (stereo not drawn)
inactive: [14] 101 % of control and 115 % of control | [15] 101 % of control and 113 % of control

NC(=S)N/N=C/c1c(-c2ccccc2)nc2n1CCS2
inactive: dose: 100.0 mg/kg/injection, schedule: Q01DX001 (ip), vehicle: Klucel (hydroxypropylcellulose) (HPC) 100 % of control | dose: 200.0 mg/kg/injection, schedule: Q01DX001 (ip), vehicle: Klucel (hydroxypropylcellulose) (HPC) 104 % of control | dose: 400.0 mg/kg/injection, schedule: Q01DX001 (ip), vehicle: Klucel (hydroxypropylcellulose) (HPC) 109 % of control

CCOC(=O)CC(=O)N(CC)CC
inactive: [13] 104 % of control | [16] 100 % of control | dose: 400.0 mg/kg/injection, schedule: Q01DX009 (ip), vehicle: saline with Tween-80 95 % of control

COc1ccc(C2NC(=O)NC2=O)cc1 (stereo not drawn)
inactive: [7] 100 % of control | [12] 91 % of control | [13] 93 % of control | [16] 94 % of control
